{
  "source": "patent US10287259B2",
  "about": "“Selenazolidine and thiazolidine compounds for treating cancer and other diseases” (The Penn State Research Foundation, priority 2016, dated 2019)",
  "type_in_all_cases": "cell-based",
  "key": {"NF-κB": {"tested_on": "NF-κB", "assay": "Electrophoretic mobility shift assay (EMSA)", "conditions": "Panc-1, 6 h pretreatment, TNF-α 30 min", "protocol": "To determine NF-κB activation, Panc-1 (1×10^6) cells were treated with different doses of AS-10 for 6 h. Thirty minutes before termination cells were stimulated with 100 ng/mL TNF-α (which is about 3.9 nM in media after addition). At the end of thirty minutes, cells were immediately stored on ice. Nuclear and cytosolic extracts were prepared as described previously (Pandey et al., 2007, J. Biol. Chem. 282: 17340-17350). Nuclear lysates were subjected to EMSA following the protocol (Pandey et al., 2007, J. Biol. Chem. 282: 17340-17350). The dried gels were exposed to X-ray films at −80° C. for exposure."}, "[1]": {"tested_on": "different cancer cell types (breast, colorectal, lung, melanoma, ovarian, prostate)", "assay": "MTT assay in different cancer cell lines", "conditions": "24, 48 and 72 h", "protocol": "MTT (3-(4,5-dimethylthiazol-2-yl)-2,5-diphenyltetrazolium) assay was performed to determine the effect of AS-10 on cancer cell viability (Plano et al., 2016, J. Med. Chem. 1946-1959; Alcolea et al., 2012, Eur. J. Med. Chem. 113:134-144; Kumar et al., 2014, Eur. J. Med. Chem. 81:267-276). Briefly, 3×10^3 cells were treated with different concentrations of AS-10 in triplicate in a 96-well plate for different time points. MTT solution (20 μL of 5.0 mg/mL solution) was added to each well, three hours prior to termination time point and incubated at 37° C. Resultant formazan crystals, at termination time point, were dissolved in 50 μL DMSO. The plate was subjected to a 96-well multiscanner (Dynex Technologies, MRX Revelation; Chantilly, Va., USA) for measuring the optical densities at 570 nm and 630 nm. IC50 values were determined by performing non-linear regression using Graphpad Prism software."}, "Panc-1 cells [2]": {"tested_on": "Panc-1 cells", "assay": "Cell cycle analysis by flow cytometry", "conditions": "serum starved 72 h; 24 h to 60 h time points", "protocol": "Flow cytometry was used to determine the cell cycle phases (Plano et al., 2016, J. Med. Chem. 1946-1959). In brief, Panc-1 cells were serum starved for 72 h, followed by treatment with different doses of AS-10 in 10% serum containing media for different time points. Treated cells were fixed in 70% cold ethanol at the end of each time point. Cells were fixed for a minimum of 4 h at 4° C. Following fixation, cells were washed with 1×PBS and were re-suspended in Propidium iodide (PI) staining solution (0.1% (v/v) triton X-100, 20 mg DNAse-free RNAse A and 2 mg of PI in 100 mL PBS). Cells were incubated in the staining solution for 15 minutes at room temperature and then analyzed by a BD FACS Calibur (BD Biosciences) for total DNA content. Modfit software (BD Biosciences) was used to obtain the histograms."}, "Panc-1 cells [3]": {"tested_on": "Panc-1 cells", "assay": "Muse caspase 3/7 activity assay", "conditions": "Panc-1, 10 μM", "protocol": "To evaluate the efficacy of AS-10 in inducing caspase 3, Panc-1 cells were treated with AS-10 at different concentrations for different time points. Caspase 3/7 activity was measured using Muse Caspase-3/7 Assay kit with Muse cell analyzer (EMD Millipore, Billercia, Mass. USA) according to manufacturer's protocol (Plano et al., 2016, J. Med. Chem. 1946-1959). In brief, the Muse Caspase 3/7 kit contains a reagent namely NucView for detection of activated caspase 3/7. The reagent is cell membrane permeable and contains a DNA binding dye that is linked to a DEVD peptide substrate. In presence of activated caspase 3/7, DEVD is cleaved and DNA binding dye is released. Therefore, cells with active caspase 3/7 activity will yield high fluorescence. (Ref Millipore, Catlog No. MCH100108). The kit also contains a dead cell marker, 7-AAD, for detection of cells with compromised cell membrane. Data from Muse cell analyzer were analyzed using Muse 1.4 software."}},
  "data": [
    {"smiles": "CC(=O)Oc1ccccc1C(=O)/N=C1\\[Se]CCN1C(=O)c1ccccc1OC(C)=O", "note": "[AS-10, 2-((3-(2-acetoxybenzoyl)-1,3-selenazolidin-2-ylidene)carbamoyl)phenyl acetate]", "values": [
      {"measurement": "NF-κB DNA binding (EMSA band)", "setting": "NF-κB", "value": "NF-κB band faded away in a dose dependent manner"},
      {"measurement": "growth of different cancer cell types", "setting": "[1]", "value": "effectively inhibited growth"},
      {"measurement": "cell cycle effect", "setting": "Panc-1 cells [2]", "value": "cell cycle arrest in G1 and G2/M phase and total inhibition of S phase"},
      {"measurement": "mode of cell death (caspase 3/7 activity, Annexin V)", "setting": "Panc-1 cells [3]", "value": "die in an apoptotic manner"},
      {"measurement": "necrosis (cells only positive for 7-ADD)", "setting": "Panc-1 cells [3]", "value": "did not induce necrosis"}
    ]}
  ]
}
